US20220023289A1, “Application Of Pyrroloquinoline Quinone In Preparation Of Medicament Used For Preventing And Treating Acute Altitude Sickness And Acute Altitude Hypoxia Injury” (priority 2018, published 2022)

Assays:
[1] = Rat body weight before the acute decompression hypoxia experiment (intragastric 7 days)
Description: (§1) Select healthy Wistar rats weight 160-200 g, half female and half male. After feeding for 3 days, these Wistar rats are randomly divided into ten groups according to their body weight, each group has 16±2 rats. The groups are divided as follows: five groups of the hypoxic exposure drug test group, respectively, are given 0.91 mg/kg, 1.83 mg/kg, 3.66 mg/kg, 7.31 mg/kg, and 14.63 mg/kg drugs. […] After continuous intragastric administration for 7 days, the animals in the hypoxic exposure group are simultaneously put into the decompression and hypoxia compound experimental chamber, the hatch is closed, and the pressure is reduced at a speed of 10 m/s. After being raised to an altitude of 6000 m and maintained for 8 hours, the speed in 10 m/s drops is reduced to normal altitude, open the hatch, and then take out the animal, collect blood samples (after standing for 1 hour, the supernatant is centrifuged and stored at −20° C.), and liver tissue samples. Detection indicator includes body weight, serum blood glucose, ATP, lactic acid, endothelin, nitric oxide, SOD, CO, MDA related to oxidative stress, and total protein, albumin, triglycerides, total cholesterol, high-density lipoprotein cholesterol, low-density lipoprotein cholesterol, glutamic pyruvic transaminase, total bilirubin, gluamic oxalacetic transaminase, serum urea nitrogen, creatinine, uric acid, lactate dehydrogenase, creatine kinase, α-hydroxybutyrate dehydrogenase; liver ATP, hepatic glycogen. Except that the formal oxygen control animal group is not put into the decompression and hypoxia compound experimental chamber, other experimental conditions and detection indicators are the same.

[2] = tested on: rats exposed to acute altitude hypoxia; assay: Protein metabolism in rats exposed to acute altitude hypoxia; format: in vivo, Wistar rat
Description: as §1
(§2) Measure blood glucose, total protein, albumin, triglycerides, total cholesterol, high-density lipoprotein cholesterol, low-density lipoprotein cholesterol, glutamic-pyruvic transaminase, total bilirubin, glutamic oxalacetic transaminase, serum urea nitrogen, creatinine, uric acid, lactate dehydrogenase, creatine kinase, α-hydroxybutyrate dehydrogenase, blood homocysteine by using an automatic blood biochemical analyzer.

[3] = tested on: rats with acute altitude hypoxia injury; assay: Oxidative stress indexes of rats with acute altitude hypoxia injury; format: in vivo, Wistar rat
Description: Operate according to the instructions, and then measure the absorbance value of each tube, and afterwards calculate the content of malondialdehyde in the sample to be tested according to the formula. […] The latter oxidizes hydroxylamine to form nitrite. It appears purplish red under the action of chromogenic agent. Measure its absorbance by a visible light spectrophotometer. When the measured sample contains superoxide dismutase, it has specific inhibitory effect on superoxide anion free radicals, make formed nitrite reduced. […] The superoxide dismutase activity in the tested sample can be calculated by formula calculation. […] The latter can form a stable complex with phenanthrophins and measure its antioxidant capacity by colorimetry. Operate according to the kit instructions, measure the absorbance of each tube at a wavelength of 520 nm, and then calculate the total antioxidant capacity in the sample to be tested according to the formula.

[4] = tested on: rats exposed to acute altitude hypoxia; assay: Renal function in rats exposed to acute altitude hypoxia; format: in vivo, Wistar rat
Description: as §1, §2

[5] = female rats, hypoxia, 0.91 mg/kg
[6] = female rats, hypoxia, 1.83 mg/kg
[7] = female rats, hypoxia, 3.66 mg/kg
[8] = female rats, hypoxia, 14.63 mg/kg
[9] = female rats, normoxia, 3.66 mg/kg
[10] = male rats exposed to hypoxia, low-dose
[11] = male rats, hypoxia, 14.63 mg/kg
[12] = female rats, hypoxia, 7.31 mg/kg

With `O=C(O)c1cc(C(=O)O)c2c(n1)C(=O)C(=O)c1cc(C(=O)O)[nH]c1-2` [PQQ, pyrroloquinoline quinone] the “rat body weight Female 7 days” value ([1]; 1.83 mg/kg) was 167.4 ± 6.7 g, the “rat body weight Male 1 day” value ([1]; 1.83 mg/kg) was 173.6 ± 5.9 g and the “rat body weight Male 7 days” value ([1]; 1.83 mg/kg) was 206.8 ± 6.2 g. For the same compound, the “rat body weight Female 1 day” value ([1]; 3.66 mg/kg) was 154.1 ± 8.6 g, the “rat body weight Female 7 days” value ([1]; 3.66 mg/kg) was 172.1 ± 2.2 g and the “rat body weight Male 1 day” value ([1]; 3.66 mg/kg) was 170.8 ± 10.8 g. For the same compound, the “rat body weight Male 7 days” value ([1]; 3.66 mg/kg) was 198.3 ± 9.0 g, the “rat body weight Female 1 day” value ([1]; 7.31 mg/kg) was 154.3 ± 7.7 g and the “rat body weight Female 7 days” value ([1]; 7.31 mg/kg) was 171.1 ± 8.6 g. The “rat body weight Male 1 day” value ([1]; 7.31 mg/kg) was 169.9 ± 9.9 g, the “rat body weight Male 7 days” value ([1]; 7.31 mg/kg) was 198.6 ± 11.6 g and the “rat body weight Female 1 day” value ([1]; 14.63 mg/kg) was 152.7 ± 7.2 g. The “rat body weight Female 7 days” value ([1]; 14.63 mg/kg) was 166.0 ± 4.1 g, the “rat body weight Male 1 day” value ([1]; 14.63 mg/kg) was 171.6 ± 10 g and the “rat body weight Male 7 days” value ([1]; 14.63 mg/kg) was 199.6 ± 12.5 g. For the same compound, the “effect on body weight” value ([1]; female rats, 7 days) was “did not affect”, the effect on weight ([1]; male rats, 7 days) was “did not affect” and the “effect on serum total protein content” value ([2]; female rats, high-dose) was “the same as the hypoxia model group”. The “albumin (second column)” value [2, 5] was 31.03 ± 0.98 g/L, the “albumin (second column)” value [2, 6] was 29.67 ± 0.98 g/L and the “albumin (second column)” value [2, 7] was 29.33 ± 0.62 g/L. The “albumin (second column)” value [2, 8] was 30.16 ± 1.40 g/L, the “albumin (second column)” value ([2]; female rats, hypoxia, 7.3 l mg/kg) was 31.49 ± 0.70 g/L and the “effect on total serum protein content” value ([2]; female rats, normoxia) was “no significant effects”. The “albumin (second column)” value [2, 9] was 30.87 ± 1.41 g/L, the “effect on serum albumin” value ([2]; hypoxia exposed female rats (PQQ low-dose)) was “can reduce the effect of serum albumin in female rats increase caused by hypoxic exposure” and the “effect on serum total protein content” value ([2]; hypoxia exposed female rats, low-dose) was “can slightly reduce”. For the same compound, the “effect on serum albumin content” value [2, 10] was “can reduce the effect of hypoxia exposure on the increase in serum albumin content”, the “effect on serum total protein content” value [2, 10] was “can slightly reduce” and the “effect on serum total protein content” value ([2]; male rats, high-dose) was “the same as that of the hypoxia model group”. The “albumin (second column)” value ([2]; male rats, hypoxia, 0.91 mg/kg) was 22.55 ± 2.53 g/L, the “albumin (second column)” value ([2]; male rats, hypoxia, 1.83 mg/kg) was 26.14 ± 2.04 g/L and the “albumin (second column)” value ([2]; male rats, hypoxia, 3.66 mg/kg) was 28.60 ± 1.12 g/L. For the same compound, the “albumin (second column)” value ([2]; male rats, hypoxia, 7.31 mg/kg) was 28.06 ± 1.31 g/L, the “albumin (second column)” value [2, 11] was 28.38 ± 0.90 g/L and the “Endo Dialdehyde” value [3, 5] was 15.07 ± 1.91 nmol/L. For the same compound, the Superoxide dismutase [3, 5] was 66.11 ± 4.18 U/ml, the Total antioxidants [3, 5] was 10.52 ± 1.08 U/ml and the “Endo Dialdehyde” value [3, 6] was 13.96 ± 1.33 nmol/L. The Superoxide dismutase [3, 6] was 60.79 ± 2.56 U/ml, the Total antioxidants [3, 6] was 10.06 ± 0.77 U/ml and the “Endo Dialdehyde” value [3, 7] was 13.73 ± 0.27 nmol/L. The Superoxide dismutase [3, 7] was 56.82 ± 3.80 U/ml, the Total antioxidants [3, 7] was 10.84 ± 0.47 U/ml and the “Endo Dialdehyde” value [3, 12] was 14.14 ± 2.68 nmol/L. For the same compound, the Superoxide dismutase [3, 12] was 56.65 ± 2.97 U/ml, the Total antioxidants [3, 12] was 10.37 ± 0.75 U/ml and the “Endo Dialdehyde” value [3, 8] was 14.81 ± 1.37 nmol/L. The Superoxide dismutase [3, 8] was 56.16 ± 3.64 U/ml, the Total antioxidants [3, 8] was 10.59 ± 1.65 U/ml and the effect on malondialdehyde ([3]; female rats, normoxia) was “can slightly increase”. The “effect on serum superoxide dismutase and total antioxidants” value ([3]; female rats, normoxia) was “no significant effects”, the “Endo Dialdehyde” value [3, 9] was 14.39 ± 0.85 nmol/L and the Superoxide dismutase [3, 9] was 52.21 ± 1.23 U/ml. For the same compound, the Total antioxidants [3, 9] was 11.28 ± 0.83 U/ml, the “effect on serum superoxide dismutase activity” value ([3]; hypoxia exposed female rats) was “can increase” and the “effect on serum total antioxidants and malondialdehyde” value ([3]; hypoxia exposed female rats) was “no significant effects”. For the same compound, the “effect on serum superoxide dismutase activity” value ([3]; hypoxia exposed male rats) was “can increase”, the “effect on serum total antioxidants and malondialdehyde” value ([3]; male rats) was “no significant effect” and the Malonaldehyde ([3]; male rats, hypoxia, 0.91 mg/kg) was 2.79 ± 0.62 nmol/L. The Superoxide dismutase ([3]; male rats, hypoxia, 0.91 mg/kg) was 196.26 ± 4.15 U/ml, the Total antioxidants ([3]; male rats, hypoxia, 0.91 mg/kg) was 3.17 ± 1.40 U/ml and the Malonaldehyde ([3]; male rats, hypoxia, 1.83 mg/kg) was 2.89 ± 1.09 nmol/L. The Superoxide dismutase ([3]; male rats, hypoxia, 1.83 mg/kg) was 193.38 ± 4.53 U/ml, the Total antioxidants ([3]; male rats, hypoxia, 1.83 mg/kg) was 2.77 ± 1.10 U/ml and the Malonaldehyde ([3]; male rats, hypoxia, 3.66 mg/kg) was 3.9 ± 1.39 nmol/L. For the same compound, the Superoxide dismutase ([3]; male rats, hypoxia, 3.66 mg/kg) was 189.59 ± 5.46 U/ml, the Total antioxidants ([3]; male rats, hypoxia, 3.66 mg/kg) was 3.81 ± 0.97 U/ml and the Malonaldehyde ([3]; male rats, hypoxia, 7.31 mg/kg) was 3.15 ± 0.99 nmol/L. For the same compound, the Superoxide dismutase ([3]; male rats, hypoxia, 7.31 mg/kg) was 186.20 ± 6.32 U/ml, the Total antioxidants ([3]; male rats, hypoxia, 7.31 mg/kg) was 3.62 ± 1.94 U/ml and the Malonaldehyde [3, 11] was 3.59 ± 1.15 nmol/L. For the same compound, the Superoxide dismutase [3, 11] was 179.58 ± 6.32 U/ml, the Total antioxidants [3, 11] was 1.49 ± 2.30 U/ml and the Creatinine [4, 5] was 14.67 ± 1.46 µmol/L. It also gave a Serum urea nitrogen [4, 5] of 6.85 ± 0.90 mmol/L, a Uric acid [4, 5] of 163.43 ± 12.51 µmol/L and a Creatinine [4, 6] of 14.23 ± 1.90 µmol/L. For the same compound, the Serum urea nitrogen [4, 6] was 5.98 ± 0.62 mmol/L, the Uric acid [4, 6] was 152.71 ± 16.58 µmol/L and the Creatinine [4, 7] was 12.71 ± 1.98 µmol/L. The Serum urea nitrogen [4, 7] was 5.79 ± 0.62 mmol/L, the Uric acid [4, 7] was 151.14 ± 18.48 µmol/L and the Creatinine [4, 12] was 16.06 ± 1.19 µmol/L. For the same compound, the Serum urea nitrogen [4, 12] was 6.00 ± 0.98 mmol/L, the Uric acid [4, 12] was 152.43 ± 25.28 µmol/L and the Creatinine [4, 8] was 13.51 ± 1.33 µmol/L. For the same compound, the Serum urea nitrogen [4, 8] was 5.86 ± 0.54 mmol/L, the Uric acid [4, 8] was 155.33 ± 21.56 µmol/L and the “effect on serum urea nitrogen, creatinine and uric acid” value ([4]; female rats, normoxia) was “no significant effects”. For the same compound, the Creatinine [4, 9] was 19.37 ± 4.32 µmol/L, the Serum urea nitrogen [4, 9] was 6.23 ± 0.36 mmol/L and the Uric acid [4, 9] was 193.57 ± 20.80 µmol/L. The “effect on serum urea nitrogen, creatinine and uric acid” value ([4]; hypoxia exposed female rats) was “no significant effects”, the “effect on serum urea nitrogen and creatinine” value ([4]; hypoxia exposed male rats) was “no significant effect” and the “effect on serum uric acid content” value ([4]; hypoxia exposed male rats, low-dose) was “reduce serum uric acid content”. The Creatinine ([4]; male rats, hypoxia, 0.91 mg/kg) was 18.44 ± 1.46 µmol/L, the Serum urea nitrogen ([4]; male rats, hypoxia, 0.91 mg/kg) was 5.13 ± 0.75 mmol/L and the Uric acid ([4]; male rats, hypoxia, 0.91 mg/kg) was 134.25 ± 19.08 µmol/L. The Creatinine ([4]; male rats, hypoxia, 1.83 mg/kg) was 21.59 ± 3.31 µmol/L, the Serum urea nitrogen ([4]; male rats, hypoxia, 1.83 mg/kg) was 5.44 ± 1.13 mmol/L and the Uric acid ([4]; male rats, hypoxia, 1.83 mg/kg) was 142.60 ± 10.78 µmol/L. It also gave a Creatinine ([4]; male rats, hypoxia, 3.66 mg/kg) of 21.90 ± 2.88 µmol/L, a Serum urea nitrogen ([4]; male rats, hypoxia, 3.66 mg/kg) of 6.37 ± 1.64 mmol/L and a Uric acid ([4]; male rats, hypoxia, 3.66 mg/kg) of 171.38 ± 14.92 µmol/L. It also gave a Creatinine ([4]; male rats, hypoxia, 7.31 mg/kg) of 22.40 ± 1.53 µmol/L, a Serum urea nitrogen ([4]; male rats, hypoxia, 7.31 mg/kg) of 5.91 ± 0.86 mmol/L and a Uric acid ([4]; male rats, hypoxia, 7.31 mg/kg) of 202.16 ± 17.13 µmol/L. It also gave a Creatinine [4, 11] of 22.49 ± 3.00 µmol/L, a Serum urea nitrogen [4, 11] of 6.23 ± 1.36 mmol/L and a Uric acid [4, 11] of 182.22 ± 15.80 µmol/L.
